Results: patent publication US20040097594A1 (priority 1998, published 2004)
Where two headings read alike, the source gives them in different places.

What was measured:
HIV-1 protease = HIV-1 protease (Human immunodeficiency virus type 1 group M subtype B, UniProt P04585); assay: biochemical
HIV-1 (strain IIIB) = assay: microbe, parasite or virus in culture; format: cell-based; conditions: Human immunodeficiency virus 1, 120 h; MT4 cells infected with HIV-1 strain IIIB, 5 days; lower line of each compound's entry; read-out: IC50 (MT-4 cells)
[1] = HIV-1 protease, upper line of each compound's entry, read-out: Ki (enzyme)

Row | Structure (SMILES) | Ki (HIV-1 protease; [1]) [nM] | IC50 (HIV-1 (strain IIIB)) [nM] | Ki (HIV-1 protease) [nM]
1 | O=C(N[C@@H](Cc1ccccc1)[C@H](O)CN(OC1CCOCC1)S(=O)(=O)c1ccc2c(c1)OCCO2)O[C@H]1CO[C@H]2OCC[C@H]21 [Compound 150, (3R,3aS,6aR)hexahydrofuro[2,3-b]furan-3-yl 1-benzyl-3-[(2,3-dihydro-1,4-benzodioxin-6-ylsulfonyl)(tetrahydro-2H-pyran-4-yloxy)amino]-2-hydroxypropylcarbamate] | < 1 | ≤ 100 | 
2 | COc1ccc(S(=O)(=O)N(C[C@@H](O)[C@H](Cc2ccccc2)NC(=O)OCc2ccccc2)OC2CCCC2)cc1 [Compound 24, Phenylmethyl N-((1S,2R)-1-benzyl-3-(cyclopentyloxy)[(4-methoxyphenyl)sulfonyl]amino-2-hydroxypropyl)carbamate] | < 1 | > 1000 | 
3 | CC(C)COC(=O)N(CC(=O)NCCO)c1cccc(S(=O)(=O)N(CC(O)C(Cc2ccccc2)NC(=O)OC2COC3OCCC23)OC2CCCC2)c1 [Compound 37, (3R,3aS,6aR)hexahydrofuro[2,3-b]furan-3-yl N-(1S,2R)-1-benzyl-3-[(cyclopentyloxy)(3-[2-[(2-hydroxyethyl)amino]-2-oxoethyl(isobutoxycarbonyl)amino)phenylsulfonyl)amino]-2-hydroxypropylcarbamate and (3S,3aR,6aS)hexahydrofuro[2,3-b]furan-3-yl N-(1S,2R)-1-benzyl-3-[(cyclopentyloxy)(3-[2-[(2-hydroxyethyl)amino]-2-oxoethyl(isobutoxycarbonyl)amino]phenylsulfonyl)amino]-2-hydroxypropylcarbamate] | < 1 | ≤ 100 | 
4 | O=C(N[C@@H](Cc1ccccc1)[C@H](O)CN(OC1CCCC1)S(=O)(=O)c1cccc(OCC(=O)N2CCOCC2)c1)O[C@H]1CO[C@H]2OCC[C@H]21 [Compound 135, (3R,3aS,6aR)hexahydrofuro[2,3-b]furan-3-yl N-[(1S,2R)-1-benzyl-3-((cyclopentyloxy)[3-(2-morpholino-2-oxoethoxy)phenyl]sulfonylamino)-2-hydroxypropyl]carbamate] | 1 to 10 | ≤ 100 | 
5 | COc1ccc(S(=O)(=O)N(C[C@@H](O)[C@H](Cc2ccccc2)NC(=O)O[C@H]2CCOC2)OC2CCOCC2)cc1 [Compound 72, (3S)tetrahydro-3-furanyl N-(1S,2R)-1-benzyl-2-hydroxy-3-[[(4-methoxyphenyl)sulfonyl](tetrahydro-2H-pyran-4-yloxy)amino]propylcarbamate] | 1 to 10 | 500 to 1000 | 
6 | NCCNc1cccc(S(=O)(=O)N(CC(O)C(Cc2ccccc2)NC(=O)OC2COC3OCCC23)OC2CCCC2)c1 [Compound 83, (3R,3aS,6aR)hexahydrofuro[2,3-b]furan-3-yl N-(1S,2R)-3-[(3[(2-aminoethyl)amino]phenylsulfonyl)(cyclopentyloxy)amino]-1-benzyl-2-hydroxypropylcarbamate and (3S,3aR,6aS)hexahydrofuro[2,3-b]furan-3-yl N-(1S,2R)-3-[(3[(2-aminoethyl)amino]phenylsulfonyl)(cyclopentyloxy)amino]-1-benzyl-2-hydroxypropylcarbamate] | < 1 | 100 to 500 | 
7 | COc1ccc(S(=O)(=O)N(C[C@@H](O)[C@H](Cc2ccccc2)NC(=O)O[C@@H]2CO[C@H]3OCC[C@H]32)OC2CCCC2)cc1 [Compound 117] | > 100 | 500 to 1000 | 
8 | COc1ccc(S(=O)(=O)N(C[C@@H](O)[C@H](Cc2ccccc2)NC(=O)OC2CO[C@H]3OCC[C@@H]23)OC2CCCC2)cc1OC (stereo partly drawn) [Compound 140, (3R,3aS,6aR)hexahydrofuro[2,3-b]furan-3-yl N-((1S, 2R)-1-benzyl-3-(cyclopentyloxy)[(3,4-dimethoxyphenyl)sulfonyl]amino-2-hydroxypropyl)carbamate] | < 1 | ≤ 100 | 
9 | COc1ccc(S(=O)(=O)N(C[C@@H](O)[C@H](Cc2ccccc2)NC(=O)OC2CO[C@H]3OCC[C@@H]23)OC2CCCCC2)cc1 (stereo partly drawn) [Compound 134, (3R,3aS,6aR)hexahydrofuro[2,3-b]furan-3-yl N-((1S,2R)-1-benzyl-3-(cyclohexyloxy)[(4-methoxyphenyl)sulfonyl]amino-2-hydroxypropyl)carbamate] |  | ≤ 100 | < 1
10 | O=C(N[C@@H](Cc1ccccc1)[C@H](O)CN(OC1CCCC1)S(=O)(=O)c1ccc2[nH]ncc2c1)O[C@H]1CCOC1 [Compound 56, (3S)Tetrahydro-3-furanyl N-(1S,2R)-1-benzyl-3-[(cyclopentyloxy)(1H-indazol-5-ylsulfonyl)amino]-2-hydroxypropylcarbamate] | < 1 | 100 to 500 | 
11 | O=C(N[C@@H](Cc1ccccc1)[C@H](O)CN(OC1CCCCC1)S(=O)(=O)c1cccc(O)c1)O[C@H]1CO[C@H]2OCC[C@H]21 [Example 159, (3R,3aS,6aR)hexahydrofuro[2,3-b]furan-3-yl(1S,2R)-1-benzyl-3-{(cyclohexyloxy)[(3-hydroxyphenyl)sulfonyl]amino}-2-hydroxypropylcarbamate] | < 1 | ≤ 100 | 
12 | O=C(N[C@@H](Cc1ccccc1)[C@H](O)CN(OC1CCCCC1)S(=O)(=O)c1ccc2c(c1)OCO2)O[C@H]1CO[C@H]2OCC[C@H]21 [Compound 155, (3R,3aS,6aR)hexahydrofuro[2,3-b]furan-3-yl(1S,2R)-3-[(1,3-benzodioxol-5-ylsulfonyl)(cyclohexyloxy)amino]-1-benzyl-2-hydroxypropylcarbamate] | < 1 | ≤ 100 | 
13 | COc1ccc(S(=O)(=O)N(C[C@@H](O)[C@H](Cc2ccccc2)NC(=O)O[C@H]2CCOC2)OC2CCCC2)cc1 [Compound 47, (3S)tetrahydro-3-furanyl N-((1S,2R)-1-benzyl-3-(cyclopentyloxy)[(4-methoxyphenyl)sulfonyl]amino-2-hydroxypropyl)carbamate] | < 1 | 500 to 1000 | 
14 | COc1ccc(S(=O)(=O)N(C[C@@H](O)[C@H](Cc2ccccc2)NC(=O)OC(C)(C)C)OCC2CCCCO2)cc1 (stereo partly drawn) [Compound 19, tert-butyl N-(1S,2R)-1-benzyl-2-hydroxy-3-[[(4-methoxyphenyl)sulfonyl](tetrahydro-2H-pyran-2-ylmethoxy)amino]propylcarbamate] | 10 to 100 | > 1000 | 
15 | Nc1nc2ccc(S(=O)(=O)N(C[C@@H](O)[C@H](Cc3ccccc3)NC(=O)OC3COCOC3)OC3CCCC3)cc2s1 [Compound 125] | < 1 | ≤ 100 | 
16 | COc1ccc(S(=O)(=O)N(C[C@@H](O)[C@H](Cc2ccccc2)NC(=O)O[C@H]2CCOC2)OC2CCCCC2)cc1 [Compound 64, (3S)tetrahydro-3-furanyl N-((1S,2R)-1-benzyl-3-(cyclohexyloxy)[(4-methoxyphenyl)sulfonyl]amino-2-hydroxypropyl)carbamate] |  | > 1000 | < 1
17 | CCC(C)ON(C[C@@H](O)[C@H](Cc1ccccc1)NC(=O)OC1COCOC1)S(=O)(=O)c1ccc(OC)cc1 (stereo partly drawn) [Compound 69, 1,3-dioxan-5-yl N-((1S,2R)-1-benzyl-3-sec-butoxy[(4-methoxyphenyl)sulfonyl]amino-2-hydroxypropyl)carbamate] | < 1 | 100 to 500 | 
18 | O=C(N[C@@H](Cc1ccccc1)[C@H](O)CN(OC1CCOCC1)S(=O)(=O)c1cccc(O)c1)O[C@H]1CO[C@H]2OCC[C@H]21 [Compound 148, (3R,3aS,6aR)hexahydrofuro[2,3-b]furan-3-yl 1-benzyl-2-hydroxy-3-[[(3-hydroxyphenyl)sulfonyl](tetrahydro-2H-pyran-4-yloxy)amino]propylcarbamate] | < 1 | ≤ 100 | 
19 | COc1ccc(S(=O)(=O)N(C[C@@H](O)[C@H](Cc2ccccc2)NC(=O)OC2COCOC2)OC2CCCC2)cc1 [Compound 48, 1,3-dioxan-5-yl N-((1S,2R)-1-benzyl-3-(cyclopentyloxy)[(4-methoxyphenyl)sulfonyl]amino-2-hydroxypropyl)carbamate] | < 1 | 100 to 500 | 
20 | CC(C)(C)OC(=O)CNc1cccc(S(=O)(=O)N(CC(O)C(Cc2ccccc2)NC(=O)OC2COC3OCCC23)OC2CCCC2)c1 (mixture of isomers) [Compound 30, tert-butyl 2-(3-[[(2R,3S)-3-([(3R,3aS,6aR)hexahydrofuro[2,3-b]furan-3-yloxy]carbonylamino)-2-hydroxy-4-phenylbutyl](cyclopentyloxy)amino]sulfonylanilino)acetate and tert-butyl 2-(3-[[(2R,3S)-3-([(3S,3aR,6aS)hexahydrofuro[2,3-b]furan-3-yloxy]carbonylamino)-2-hydroxy-4-phenylbutyl](cyclopentyloxy)amino]sulfonylanilino)acetate] | < 1 | 100 to 500 | 
21 | CC(C)ON(C[C@@H](O)[C@H](Cc1ccccc1)NC(=O)OC(C)(C)C)S(=O)(=O)c1ccc2[nH]c(NS(C)(=O)=O)nc2c1 [Compound 5] | 1 to 10 | 500 to 1000 | 
22 | COc1ccc(S(=O)(=O)N(C[C@@H](O)[C@H](Cc2ccccc2)NC(=O)C(C)CS(C)(=O)=O)OC2CCCC2)cc1 (stereo partly drawn) [Compound 115, 1N-(3-Methylsulfonylisobutyryl)-(1S,2R)-1-benzyl-3-(cyclopentyloxy)[4-methoxyphenylsulfonyl]amino-2-hydroxypropylamine] | > 100 | 500 to 1000 | 
23 | CC(C)ON(C[C@@H](O)[C@H](Cc1ccccc1)NC(=O)OC(C)(C)C)S(=O)(=O)c1ccc2[nH]cnc2c1 [Compound 3] | 10 to 100 | > 1000 | 
24 | NC(=O)C[C@H](NC(=O)c1ccc2ccccc2n1)C(=O)N[C@@H](Cc1ccccc1)[C@H](O)CN(OC1CCCC1)S(=O)(=O)c1ccc2cn[nH]c2c1 [Compound 52] | < 1 | ≤ 100 | 
25 | CCC(C)ON(C[C@@H](O)[C@H](Cc1ccccc1)NC(=O)OC1CCOC1)S(=O)(=O)c1ccc(OC)cc1 (stereo partly drawn) [Compound 67, (3S)tetrahydro-3-furanyl N-((1S,2R)-1-benzyl-3-sec-butoxy[(4-methoxyphenyl)sulf-onyl]amino-2-hydroxypropyl)carbamate] | < 1 | 100 to 500 | 
26 | COc1ccc(S(=O)(=O)N(C[C@@H](O)[C@H](Cc2ccccc2)NC(=O)OC(C)(C)C)OC2CCCC2)cc1 [Compound 7] |  | > 1000 | 1 to 10
